Publication PMC9232612, “A phase 1b randomised controlled trial of a glucagon-like peptide-1 and glucagon receptor dual agonist IBI362 (LY3305677) in Chinese patients with type 2 diabetes” (Nature Communications, 2022)
Several values for one entry are separate records, joined by “and”; a condition that tells them apart may be missing. Identical values can stand only once.

Assays:
Format in all cases: in vivo, human
[1] = test system: Chinese patients with T2D; test: Change from baseline in heart rate, standard 12-lead electrocardiogram
Source text: (§1) Primary outcomes of the study were the safety and tolerability of IBI362. Safety assessment included adverse events, physical examinations, laboratory tests (including lipase, amylase and calcitonin level measures), vital signs and 12-lead electrocardiogram. Adverse events were categorized according to the Medical Dictionary for Regulatory Activities system organ classes (SOCs) and preferred terms. Treatment-emergent adverse events (TEAEs) were monitored from the time of informed consent to the safety follow-up period. The severity of TEAEs (mild, moderate or severe) and the association between an event and the study drug were assessed by investigators based on pre-specified criteria.
CFB in heart rate (beats/min),
Fig. S1: Change from baseline in heart rate over time.
Data are from standard 12-lead electrocardiogram, measured at 1 hour before each dose in the morning from week 0 to week 11, and 168 hours after the last dose (week 12). Data are plotted as means +/- SD. CFB = change from baseline; SD = standard deviation.Source data are provided as […]
(1 picture or pasted object on this page, not shown here)

[2] = test system: Chinese patients with T2D; test: Homeostatic model assessment of β-cell function (HOMA-β); conditions: for Change from baseline to week 12 in HOMA-β, individual: single patients
Source text: (§2) Exploratory outcomes included change from baseline in body weight, waist circumference, body-mass index (BMI) and change in homeostatic model assessment of β-cell function (HOMA-β) and insulin resistance (HOMA-IR).

[3] = test system: Chinese patients with T2D; test: Homeostatic model assessment of insulin resistance (HOMA-IR); conditions: for Change from baseline to week 12 in HOMA-IR, individual: single patients
Source text: as §2

[4] = test system: Chinese patients with T2D; test: Blood pressure (systolic, diastolic); conditions: mean
Source text: as §1
Fig. S7: Change from baseline in waist circumference, BMI and blood pressure at week 12. a. CFB in waist circumference at week 12. b. CFB in BMI at week 12. c. CFB in blood pressure at week 12. Data are plotted as means +/- SD. a. IBI362 3.0 mg n = 7; IBI362 4.5 mg n = 5; IBI362 6.0 mg n = 8; Pooled placebo n = 11; Dulaglutide n = 6. b. IBI362 3.0 mg n = 7; IBI362 4.5 mg n = 5; […]
mg n = 6; IBI362 6.0 mg n = 8; Pooled placebo n = 11; Dulaglutide n = 6. BMI = body-mass index; CFB = change from baseline; DBP = diastolic blood pressure; SBP = systolic blood pressure; SD = standard deviation. Source data are provided as a Source Data file.
CFB in BMI at week 12 (kg/m2), […]
at week 12 (mm Hg), mean (SD)
CFB in waist circumference at week 12 (cm), mean (SD) […]

[5] = test system: Chinese patients with T2D; test: Treatment-emergent adverse events (MedDRA SOC/preferred term), 12-week once-weekly s.c. treatment plus 8-week safety follow-up, phase 1b
Method: The study included a 3-week screening period, a 12-week treatment period and an 8-week safety follow-up period. During the 12-week treatment period, IBI362 or placebo was subcutaneously administered once weekly with one of the three dose-escalation schedules: 1.0–2.0–3.0 mg for the 3.0 mg cohort, 1.5–3.0–4.5 mg for the 4.5 mg cohort and 2.0–4.0–6.0 mg for the 6.0 mg cohort (each dose level administered for 4 weeks). The 6.0 mg cohort started dosing after tolerability evaluation of 1.5 mg dosing in the 4.5 mg cohort. The internal unblinded safety monitoring group was responsible for the safety monitoring. Dulaglutide was subcutaneously administered once weekly at a fixed dose of 1.5 mg. Patients who were on metformin prior to the enrolment of this trial were required to continue their previous dose of metformin throughout the trial. Investigators and authorized study personnel in each centre recorded the study data into the electronic case report forms (eCRFs), which were reviewed and validated by clinical research associates. The data in the eCRFs were submitted to the electronic data capture database.
as §1
Safety analyses were done in the safety population (defined as all patients who received at least one dose of the study treatment). Pharmacokinetic analyses were done in the pharmacokinetic population (defined as all patients who received at least one dose of IBI362 and had at least one valid plasma concentration assessment).

Body weight = conditions: for Percent change from baseline to week 12 in body weight, single patients: each line a single patient; for Percent change from baseline in body weight, LS mean / Percent change from baseline in body weight, LS mean (SE) / Body weight (percent CFB): ETD versus placebo, LS mean (90% CI): MMRM; for Percent change from baseline in body weight, LS mean (SE) / Body weight (percent CFB): ETD versus placebo, LS mean (90% CI): week 12
Method: as §2
The analyses for change from baseline in HbA1c, FPG, post-MTT glucose AUC0–4 h and body weight were performed using the mixed-effect model for repeated measures (MMRM) with least-squares means and standard error provided. The MMRM included the corresponding baseline value, treatment, visit and treatment-by-visit as fixed effects and patient as a random effect. Mean change or mean percent change from baseline were analysed using a restricted maximum likelihood (REML)‐based repeated measures approach in combination with the Newton Raphson Algorithm. The fix effect of visit was fitted as a repeated effect and an unstructured covariance matrix was used. In case of non-converge, matrix like Variance Components and Compound Symmetry will be tested in a subsequent order until model‐convergence is achieved. The Kenward-Roger degree of freedom was used in estimating fixed effects. No missing data imputation was conducted. For HbA1c, FPG and body weight, point estimate of treatment difference versus placebo and 90% CI were provided for each IBI362 dose group and the dulaglutide group, with nominal p values.

## CC(C)C[C@H](NC(=O)[C@H](CC(C)C)NC(=O)[C@H](Cc1c[nH]c2ccccc12)NC(=O)[C@H](CCC(=O)O)NC(=O)[C@@H](NC(=O)[C@H](Cc1ccccc1)NC(=O)[C@H](CCC(=O)O)NC(=O)[C@H](CCCCNC(=O)COCCOCCNC(=O)COCCOCCNC(=O)CC[C@H](NC(=O)CCCCCCCCCCCCCCCCCCC(=O)O)C(=O)O)NC(=O)[C@H](C)NC(=O)[C@H](CCCCN)NC(=O)[C@H](CCCCN)NC(=O)[C@H](CCC(=O)O)NC(=O)[C@H](CC(=O)O)NC(=O)[C@H](CC(C)C)NC(=O)[C@H](Cc1ccc(O)cc1)NC(=O)[C@H](CCCCN)NC(=O)[C@H](CO)NC(=O)[C@H](Cc1ccc(O)cc1)NC(=O)[C@H](CC(=O)O)NC(=O)[C@H](CO)NC(=O)[C@@H](NC(=O)[C@H](Cc1ccccc1)NC(=O)[C@@H](NC(=O)CNC(=O)[C@H](CCC(N)=O)NC(=O)C(C)(C)NC(=O)[C@@H](N)Cc1c[nH]cn1)[C@@H](C)O)[C@@H](C)O)C(C)C)C(=O)N[C@@H](CCC(=O)O)C(=O)NCC(=O)NCC(=O)N1CCC[C@H]1C(=O)N[C@@H](CO)C(=O)N[C@@H](CO)C(=O)NCC(N)=O [IBI362]
[1]; 3.0 mg cohort
  heart rate, mean change from baseline (bound): < 10 beats per minute
[1]; 6.0 mg cohort
  heart rate, mean change from baseline (bound): < 15 beats per minute
[1]; patients receiving IBI362
  heart rate increase (up to): 10-15 beats per minute
[2]; 3.0 mg cohort, n=7
  Change from baseline to week 12 in HOMA-β, mean: 9.2%
  Change from baseline to week 12 in HOMA-β, individual: -8.1% and 15.7% and 23.0% and -3.8% and 14.4% and 16.4% and 6.9%
[2]; 4.5 mg cohort, n=5
  Change from baseline to week 12 in HOMA-β, mean: 26.4%
  Change from baseline to week 12 in HOMA-β, individual: -9.6% and 82.4% and -0.3% and 47.8% and 11.6%
[2]; 6.0 mg cohort, n=8
  Change from baseline to week 12 in HOMA-β, mean: 21.0%
  Change from baseline to week 12 in HOMA-β, individual: -6.2% and 6.9% and 72.2% and 5.4% and 33.9% and 27.9% and -1.8% and 29.8%
[3]; 3.0 mg cohort, n=7
  Change from baseline to week 12 in HOMA-IR, mean: -2.1
  Change from baseline to week 12 in HOMA-IR, individual: -4.8 and -1.3 and -2.3 and -1.2 and -2.4
[3]; 4.5 mg cohort, n=5
  Change from baseline to week 12 in HOMA-IR, mean: -1.5
  Change from baseline to week 12 in HOMA-IR, individual: -2.8 and -5.0 and -1.9 and 2.5 and -0.5
[3]; 6.0 mg cohort, n=8
  Change from baseline to week 12 in HOMA-IR, mean: -5.4
  Change from baseline to week 12 in HOMA-IR, individual: -1.9 and -5.3 and -0.4 and -4.2 and -1.1 and -1.0 and -22.2 and -7.0
[4]; IBI362 3.0 mg
  Change from baseline to week 12 in blood pressure, diastolic: -1.4 mm Hg
  Change from baseline to week 12 in blood pressure, systolic: -8.1 mm Hg
[4]; IBI362 4.5 mg
  Change from baseline to week 12 in blood pressure, diastolic: -5.2 mm Hg
  Change from baseline to week 12 in blood pressure, systolic: -6.7 mm Hg
[4]; IBI362 6.0 mg
  Change from baseline to week 12 in blood pressure, diastolic: 2.3 mm Hg
  Change from baseline to week 12 in blood pressure, systolic: -3.3 mm Hg
[5]; 4.5 mg group, 10 events
  median time to resolution of gastrointestinal adverse events (diarrhoea, nausea and vomiting): 3.5 days
[5]; 6.0 mg group, 11 events
  median time to resolution of gastrointestinal adverse events (diarrhoea, nausea and vomiting): 4 days
[5]; 3.0, 4.5 and 6.0 mg dose-escalation regimens
  tolerability: well tolerated
Body weight; across IBI362 cohorts
  body weight reductions from baseline to week 12 (up to): up to 5.4%
Body weight; 3.0 mg cohort
  Percent change from baseline to week 12 in body weight, single patients: -0.9% and -2.2% and 0.6% and -1.0% and 0.0% and -5.1%
  Body weight (percent CFB): ETD versus placebo, LS mean (90% CI): 0.1 ( −2.6, 2.8) %
Body weight; 4.5 mg cohort
  Percent change from baseline to week 12 in body weight, single patients: -15.9% and -3.7% and 1.3% and -1.6% and -6.0%
  Body weight (percent CFB): ETD versus placebo, LS mean (90% CI): −4.0 (−6.7, −1.2) % and −4.0%
Body weight; week 4, 3.0 mg cohort, n=8
  Percent change from baseline in body weight, LS mean: 0.1%
Body weight; week 4, 4.5 mg cohort, n=8
  Percent change from baseline in body weight, LS mean: -1.1%
Body weight; week 4, 6.0 mg cohort, n=8
  Percent change from baseline in body weight, LS mean: -1.7%
Body weight; week 8, 3.0 mg cohort, n=8
  Percent change from baseline in body weight, LS mean: -0.2%
Body weight; week 8, 4.5 mg cohort, n=8
  Percent change from baseline in body weight, LS mean: -2.1%
Body weight; week 8, 6.0 mg cohort, n=8
  Percent change from baseline in body weight, LS mean: -3.3%
Body weight; 3.0 mg cohort, n=8
  Percent change from baseline in body weight, LS mean (SE): −0.9 (1.3) % and −0.9%
Body weight; 4.5 mg cohort, n=8
  Percent change from baseline in body weight, LS mean (SE): -5.0%
Body weight; 6.0 mg cohort, n=8
  Percent change from baseline in body weight, LS mean (SE): -5.4%
Body weight; 6.0 mg cohort
  Body weight (percent CFB): ETD versus placebo, LS mean (90% CI): −4.4 (−7.0, −1.7) % and −4.4%

## Dulaglutide: open-label active reference, subcutaneously once weekly at a fixed dose of 1.5 mg [reference compound]
[1]; 1.5 mg once weekly
  heart rate, mean change from baseline (bound): < 10 beats per minute
[2]; 1.5 mg once weekly, n=6
  Change from baseline to week 12 in HOMA-β, mean: 30.9%
  Change from baseline to week 12 in HOMA-β, individual: 31.2% and 37.1% and 18.9% and 5.2% and 22.2% and 70.7%
[3]; 1.5 mg once weekly, n=6
  Change from baseline to week 12 in HOMA-IR, mean: -1.5
  Change from baseline to week 12 in HOMA-IR, individual: 0.346 and 1.1 and -0.8 and -3.0 and -3.5
[4]; Dulaglutide group
  Change from baseline to week 12 in blood pressure, diastolic: 4.0 mm Hg
  Change from baseline to week 12 in blood pressure, systolic: 5.8 mm Hg
[5]; 1.5 mg once weekly, n=6
  Infections and infestations (SOC): 0 number of patients (%)
  Upper respiratory tract infection: 0 number of patients (%)
  Urinary tract infection: 0 number of patients (%)
Body weight; 1.5 mg once weekly
  Percent change from baseline to week 12 in body weight, single patients: 1.8% and -0.6% and 0.5% and 1.3% and -0.126% and -7.2%
  Body weight (percent CFB): ETD versus placebo, LS mean (90% CI): 0.2 ( −2.8, 3.1) %
Body weight; week 4, 1.5 mg once weekly, n=6
  Percent change from baseline in body weight, LS mean: -0.2%
Body weight; week 8, 1.5 mg once weekly, n=6
  Percent change from baseline in body weight, LS mean: -0.8%
Body weight; 1.5 mg once weekly, n=6
  Percent change from baseline in body weight, LS mean (SE): −0.9 (1.4) % and -0.9%
Body weight; 1.5 mg once weekly, n=6, listed as dulaglutide
  Percent change from baseline in body weight, LS mean (SE): −0.9%
